Results as given in patent publication US20170050957A1, “4-AMINO-6-(HETEROCYCLIC)PICOLINATES AND 6-AMINO-2-(HETEROCYCLIC)PYRIMIDINE-4-CARBOXYLATES AND THEIR USE AS HERBICIDES” (Dow AgroSciences LLC, priority 2013, published 2017).
Read-outs that look alike come from different tables or passages of the source.

Experiments:
[1] = test system: Key Broadleaf Weed and Crop Species; assay: Post-emergent Test II herbicidal activity (Table 15); type: in vivo; conditions: post-emergence, 336 h, 14 d; for pest or weed control at 35 g/ha: 35 g ai/ha; for pest or weed control at 70 g/ha: 70 g ai/ha; for pest or weed control at 140 g/ha: 140 g ai/ha
How it was run: (§1)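 Greenhouse-grown seedlings at first/second true leaf receive a track spray at 187 L/ha, using a highest rate plus two-fold serial dilutions down to 1/16×. Watering is by subirrigation to avoid wash-off. Percent injury (0-100) is judged by eye at 14 d against untreated plants.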

[2] = test system: Key Grass and Sedge Weeds as well as Grass Crops; assay: Post-emergent Test II herbicidal activity (Table 16); type: in vivo; conditions: post-emergence, 336 h; for pest or weed control at 35 g/ha: 35 g ai/ha; for pest or weed control at 70 g/ha: 70 g ai/ha; for pest or weed control at 140 g/ha: 140 g ai/ha
How it was run: as §1

[3] = Abutilon theophrasti, velvetleaf (Abutilon theophrasti), read-out: Visual Growth Reduction (%) 14 Days After Application, ABUTH
[4] = Amaranthus retroflexus, redroot pigweed (Amaranthus retroflexus), read-out: Visual Growth Reduction (%) 14 Days After Application, AMARE
[5] = Brassica napus, oilseed rape, canola (Brassica napus), read-out: Visual Growth Reduction (%) 14 Days After Application, BRSNN
[6] = Chenopodium album, lambsquarters (Chenopodium album), read-out: Visual Growth Reduction (%) 14 Days After Application, CHEAL
[7] = Euphorbia heterophylla, wild poinsettia (Euphorbia heterophylla), read-out: Visual Growth Reduction (%) 14 Days After Application, EPHHL
[8] = Helianthus annuus, sunflower (Helianthus annuus), read-out: Visual Growth Reduction (%) 14 Days After Application, HELAN
[9] = Cyperus esculentus, yellow nutsedge (Cyperus esculentus), 14 days after application, read-out: Visual Growth Reduction (%) 14 Days After Application CYPES
[10] = Echinochloa crus-galli, barnyardgrass (Echinochloa crus-galli), 14 days after application, read-out: Visual Growth Reduction (%) 14 Days After Application ECHCG
[11] = Oryza sativa, rice (Oryza sativa), 14 days after application, read-out: Visual Growth Reduction (%) 14 Days After Application ORYSA
[12] = Setaria faberi, giant foxtail (Setaria faberi), 14 days after application, read-out: Visual Growth Reduction (%) 14 Days After Application SETFA
[13] = Triticum aestivum, wheat, spring (Triticum aestivum), 14 days after application, read-out: Visual Growth Reduction (%) 14 Days After Application TRZAS
[14] = Zea mays, maize, corn (Zea mays), 14 days after application, read-out: Visual Growth Reduction (%) 14 Days After Application ZEAMX
[15] = Cyperus esculentus, yellow nutsedge (Cyperus esculentus), 14 d, read-out: Visual Growth Reduction (%) 14 Days After Application, CYPES
[16] = Echinochloa crus-galli, barnyardgrass (Echinochloa crus-galli), 14 d, read-out: Visual Growth Reduction (%) 14 Days After Application, ECHCG
[17] = Oryza sativa, rice (Oryza sativa), 14 d, read-out: Visual Growth Reduction (%) 14 Days After Application, ORYSA
[18] = Setaria faberi, giant foxtail (Setaria faberi), 14 d, read-out: Visual Growth Reduction (%) 14 Days After Application, SETFA
[19] = Triticum aestivum, wheat, spring (Triticum aestivum), 14 d, read-out: Visual Growth Reduction (%) 14 Days After Application, TRZAS
[20] = Zea mays, maize, corn (Zea mays), 14 d, read-out: Visual Growth Reduction (%) 14 Days After Application, ZEAMX

| Structure (SMILES) | pest or weed control at 35 g/ha [1, 3] [%] | pest or weed control at 70 g/ha [1, 3] [%] | pest or weed control at 140 g/ha [1, 3] [%] | pest or weed control at 35 g/ha [1, 4] [%] | pest or weed control at 70 g/ha [1, 4] [%] | pest or weed control at 140 g/ha [1, 4] [%] | pest or weed control at 35 g/ha [1, 5] [%] | pest or weed control at 70 g/ha [1, 5] [%] | pest or weed control at 140 g/ha [1, 5] [%] | pest or weed control at 35 g/ha [1, 6] [%] | pest or weed control at 70 g/ha [1, 6] [%] | pest or weed control at 140 g/ha [1, 6] [%] | pest or weed control at 35 g/ha [1, 7] [%] | pest or weed control at 70 g/ha [1, 7] [%] | pest or weed control at 140 g/ha [1, 7] [%] | pest or weed control at 35 g/ha [1, 8] [%] | pest or weed control at 70 g/ha [1, 8] [%] | pest or weed control at 140 g/ha [1, 8] [%] | melting point [°C] | further results |
| --- | --- | --- | --- | --- | --- | --- | --- | --- | --- | --- | --- | --- | --- | --- | --- | --- | --- | --- | --- | --- |
| COc1c(N)nc(-c2ccc3ccsc3c2)nc1C(=O)O [Compound 3.21] | 0 to 29 | 30 to 44 | 45 to 59 | 95 to 100 | 95 to 100 | 95 to 100 | 75 to 84 | 85 to 94 | 95 to 100 | 85 to 94 | 85 to 94 | 95 to 100 | 75 to 84 | 85 to 94 | 95 to 100 | 60 to 74 | 60 to 74 | 75 to 84 | 134 to 136 | pest or weed control at 35 g/ha [2, 9]: 0 to 29%; pest or weed control at 70 g/ha [2, 9]: 0 to 29%; pest or weed control at 140 g/ha [2, 9]: 0 to 29%; pest or weed control at 35 g/ha [2, 10]: 75 to 84%; pest or weed control at 70 g/ha [2, 10]: 85 to 94%; pest or weed control at 140 g/ha [2, 10]: 85 to 94%; pest or weed control at 35 g/ha [2, 11]: 0 to 29%; pest or weed control at 70 g/ha [2, 11]: 30 to 44%; pest or weed control at 140 g/ha [2, 11]: 30 to 44%; pest or weed control at 35 g/ha [2, 12]: 0 to 29%; pest or weed control at 70 g/ha [2, 12]: 30 to 44%; pest or weed control at 140 g/ha [2, 12]: 60 to 74%; pest or weed control at 35 g/ha [2, 13]: 30 to 44%; pest or weed control at 70 g/ha [2, 13]: 30 to 44%; pest or weed control at 140 g/ha [2, 13]: 45 to 59%; pest or weed control at 35 g/ha [2, 14]: 30 to 44%; pest or weed control at 70 g/ha [2, 14]: 60 to 74%; pest or weed control at 140 g/ha [2, 14]: 75 to 84% |
| COC(=O)c1nc(-c2ccc(Cl)c3[nH]ccc23)nc(N)c1OC [Compound 1.45] | 0 to 29 | 0 to 29 | 0 to 29 | 0 to 29 | 0 to 29 | 45 to 59 | 0 to 29 | 0 to 29 | 0 to 29 | 0 to 29 | 0 to 29 | 0 to 29 | 0 to 29 | 0 to 29 | 0 to 29 | 0 to 29 | 0 to 29 | 30 to 44 | 226 | pest or weed control at 35 g/ha [2, 15]: 0 to 29%; pest or weed control at 70 g/ha [2, 15]: 0 to 29%; pest or weed control at 140 g/ha [2, 15]: 0 to 29%; pest or weed control at 35 g/ha [2, 16]: 0 to 29%; pest or weed control at 70 g/ha [2, 16]: 0 to 29%; pest or weed control at 140 g/ha [2, 16]: 0 to 29%; pest or weed control at 35 g/ha [2, 17]: 0 to 29%; pest or weed control at 70 g/ha [2, 17]: 0 to 29%; pest or weed control at 140 g/ha [2, 17]: 0 to 29%; pest or weed control at 35 g/ha [2, 18]: 0 to 29%; pest or weed control at 70 g/ha [2, 18]: 0 to 29%; pest or weed control at 140 g/ha [2, 18]: 0 to 29%; pest or weed control at 35 g/ha [2, 19]: 0 to 29%; pest or weed control at 70 g/ha [2, 19]: 0 to 29%; pest or weed control at 140 g/ha [2, 19]: 0 to 29%; pest or weed control at 35 g/ha [2, 20]: 0 to 29%; pest or weed control at 70 g/ha [2, 20]: 0 to 29%; pest or weed control at 140 g/ha [2, 20]: 0 to 29% |
